Earlier results, collected in patent US20160375041A1, “INHIBITION OF ISOPRENOID BIOSYNTHETIC PATHWAYS TO TREAT AUTOIMMUNE DISORDERS” (priority 2013, published 2016).

Tested on: Vγ9Vδ2 TCR
Conditions: microbial derived HMBPP; fold more potent as stimulatory pyrophosphate

SMILES: C/C(=C\COP(=O)(O)OP(=O)(O)O)CO [HMBPP, (E)-4-Hydroxy-3-methyl-but-2-enyl pyrophosphate]
- potency relative to any other known, naturally-occurring pyrophosphate: over 10,000
